In EPA's ToxRefDB 2:

Columns and labels:
rat [1] = settings: Combined chronic toxicity/carcinogenicity, sprague dawley, Dermal, Topical, dose end: 101 week, group: systemic
rat [2] = settings: Subchronic oral toxicity in rodents, sprague dawley, Feed, dose end: 90 day, group: systemic
mouse [3] = settings: Carcinogenicity; b6c3f1; Oral; Feed; dose end: 78 week; group: systemic; systemic / in life observation / body weight / body weight gain
mouse [4] = settings: Subchronic oral toxicity in rodents, cd1, Feed, dose end: 90 day, group: systemic, systemic / clinical chemistry / hepatic mixed function oxidase (mfo) assay / hepatic mixed function oxidase (mfo) assay + systemic / in life…
dog [5] = settings: Subchronic oral toxicity in nonrodent, beagle, Feed, dose end: 90 day, group: systemic, systemic / clinical chemistry / cortisol / cortisol + systemic / organ weight / liver / relative to body weight + systemic / pathology …
rat [6] = settings: Combined chronic toxicity/carcinogenicity, other, Oral, Feed, dose end: 24 month, group: systemic
rat [7] = settings: Multigenerational reproductive toxicity study, other, Oral, Feed, dose end: 2 generation
dog [8] = settings: Chronic toxicity, beagle, Oral, Feed, dose end: 52 week, group: systemic
rat [9] = settings: Prenatal developmental toxicity study, sprague dawley, Oral, Gavage/Intubation, dose end: 20 GD
rabbit [10] = settings: Prenatal developmental toxicity study, new zealand white, Oral, Gavage/Intubation, dose end: 20 GD
hamster = settings: Subchronic oral toxicity in rodents, golden syrian, Feed, dose end: 90 day, group: systemic, systemic / in life observation / body weight / body weight + systemic / in life observation / body weight / body weight gain + systemic / in…
rat [11] = settings: Subchronic oral toxicity in rodents, wistar, Feed, dose end: 90 day, group: systemic, systemic / clinical chemistry / cholesterol / cholesterol + systemic / pathology microscopic / kidney / degeneration + systemic / pathology …
rabbit [12] = settings: Prenatal developmental toxicity study, new zealand white, Oral, Gavage/Intubation, dose end: 28 GD
dog [13] = settings: Subchronic oral toxicity in nonrodent, beagle, Capsule, dose end: 13 week, group: systemic, systemic / clinical chemistry / alanine aminotransferase (alt/sgpt) / alanine aminotransferase (alt/sgpt) + systemic / clinical chemistry / …
rat [14] = settings: Combined chronic toxicity/carcinogenicity, wistar, Oral, Feed, dose end: 106 week, group: systemic
rat [15] = settings: Prenatal developmental toxicity study, sprague dawley, Oral, Gavage/Intubation, dose end: 20 GD; remark: listed apart in the source
rat [16] = settings: Multigenerational reproductive toxicity study, wistar, Oral, Feed, dose end: 2 generation
dog [17] = settings: Chronic toxicity, beagle, Oral, Capsule, dose end: 55 week, group: systemic
rat [18] = settings: Combined chronic toxicity/carcinogenicity, sprague dawley, Oral, Feed, dose end: 104 week, group: systemic
rat [19] = settings: Developmental neurotoxicity study; sprague dawley; Oral; Gavage/Intubation; dose end: 70 PND; group: cannot be grouped; reproductive / reproductive performance / gestational length / gestational length + systemic / in life observation / body weight / body …
rat [20] = settings: Developmental neurotoxicity study; fischer; Oral; Water; dose end: 90 PND; group: cannot be grouped; developmental / developmental landmark / incisor eruption / incisor eruption + systemic / in life observation / body weight / offspring (pup…
rat [21] = settings: Developmental neurotoxicity study; sprague dawley; Oral; Water; dose end: 42 PND; group: cannot be grouped; developmental / developmental landmark / eye opening / eye opening + systemic / in life observation / body weight / offspring (pup) weight
[22] = systemic / pathology microscopic / mammary gland / fibroadenoma + systemic / in life observation / body weight / body weight + systemic / in…
[23] = systemic / pathology microscopic / mammary gland / fibroadenoma + systemic / pathology microscopic / pituitary gland / acidophil adenoma + …
[24] = systemic / pathology microscopic / thyroid gland / hypertrophy
[25] = systemic / pathology microscopic / thyroid gland / hypertrophy + systemic / clinical chemistry / alanine aminotransferase (alt/sgpt) / …
[26] = systemic / pathology microscopic / liver / hypertrophy + systemic / pathology microscopic / liver / vacuolization + systemic / clinical …
[27] = group: offspring, developmental / offspring survival late / viability index / viability index + systemic / in life observation / body weight / offspring (pup…
[28] = group: parental, systemic / pathology microscopic / liver / hypertrophy + systemic / pathology microscopic / liver / vacuolization
[29] = group: reproductive, reproductive / offspring survival early / dead fetuses / dead fetuses
[30] = systemic / clinical chemistry / albumin / albumin + systemic / clinical chemistry / alkaline phosphatase (alp/alk) / alkaline phosphatase (…
[31] = systemic / hematology / hematocrit (hct) / hematocrit (hct) + systemic / hematology / hemoglobin (hgb) / hemoglobin (hgb)
[32] = group: developmental, developmental / developmental malformation / bone / incomplete ossification
[33] = group: maternal, reproductive / reproductive performance / postimplantation loss / postimplantation loss + systemic / in life observation / body weight / …
[34] = group: developmental, developmental / developmental malformation / bone / full supernumerary + developmental / developmental malformation / bone / incomplete …
[35] = group: maternal, reproductive / reproductive performance / aborted / aborted + systemic / in life observation / body weight / body weight gain + systemic / …
[36] = group: developmental, developmental / developmental malformation / bone / incomplete ossification + developmental / developmental malformation / eye / [other] + …
[37] = group: maternal, reproductive / reproductive performance / aborted / aborted + reproductive / reproductive performance / postimplantation loss / …
[38] = systemic / in life observation / body weight / body weight gain
[39] = group: developmental, systemic / in life observation / body weight / fetal weight + developmental / developmental malformation / bone / absent + developmental / …
[40] = group: maternal, reproductive / reproductive performance / implantations / implantations
[41] = group: maternal, reproductive / offspring survival early / litter size / litter size
[42] = group: parental, systemic / organ weight / epididymis / absolute + systemic / organ weight / epididymis / relative to body weight
[43] = group: parental, systemic / organ weight / epididymis / absolute + systemic / organ weight / epididymis / relative to body weight + systemic / organ weight…
[44] = group: reproductive, reproductive / reproductive performance / gestational length / gestational length + reproductive / reproductive performance / implantations…
[45] = systemic / pathology microscopic / adrenal gland / vacuolization + systemic / clinical chemistry / [other] / [other] + systemic / clinical …
[46] = systemic / in life observation / clinical signs / fur (altered appearance)

CC/C(=C(\c1ccc(O)cc1)c1ccc(OCCN(C)C)cc1)c1ccccc1 [4-Hydroxytamoxifen]
LEL (rat [1]; [22]): 0.02 mg/kg/day
NEL (rat [1]; [22]): < 0.02 mg/kg/day
LOAEL (rat [1]; [23]): > 1 mg/kg/day
NOAEL (rat [1]; [23]): ≥ 1 mg/kg/day

OC(c1ccc(Cl)cc1)(c1ccc(Cl)cc1)C(Cl)(Cl)Cl [Dicofol]
LEL (rat [2]; [24]): 0.64 mg/kg/day
LOAEL (rat [2]; [24]): 0.64 mg/kg/day
NEL (rat [2]; [25]): 0.07 mg/kg/day
NOAEL (rat [2]; [25]): 0.07 mg/kg/day
LEL (mouse [3]): 35 mg/kg/day
LOAEL (mouse [3]): 35 mg/kg/day
NEL (mouse [3]): 17 mg/kg/day
NOAEL (mouse [3]): 17 mg/kg/day
LEL (mouse [4]): 18.2 mg/kg/day
LOAEL (mouse [4]): 18.2 mg/kg/day
NEL (mouse [4]): 1.6 mg/kg/day
NOAEL (mouse [4]): 1.6 mg/kg/day
LEL (dog [5]): 3.3 mg/kg/day
LOAEL (dog [5]): 3.3 mg/kg/day
NEL (dog [5]): 0.29 mg/kg/day
NOAEL (dog [5]): 0.29 mg/kg/day
LOAEL (rat [6]; systemic / pathology microscopic / liver / hypertrophy + systemic / pathology microscopic / liver / vacuolization): 2.23 mg/kg/day
LEL (rat [6]; [26]): 2.23 mg/kg/day
NEL (rat [6]; [26]): 0.22 mg/kg/day
NOAEL (rat [6]; [26]): 0.22 mg/kg/day
LEL (rat [7]; group: offspring, developmental / offspring survival late / [other] / [other] + developmental / offspring survival late / viability index / viability index): 11.2 mg/kg/day
NEL (rat [7]; group: offspring, developmental / offspring survival late / [other] / [other] + developmental / offspring survival late / viability index / viability index + …): 2.2 mg/kg/day
LOAEL (rat [7]; [27]): > 23.2 mg/kg/day
NOAEL (rat [7]; [27]): ≥ 23.2 mg/kg/day
LEL (rat [7]; [28]): 1.9 mg/kg/day
LOAEL (rat [7]; [28]): 1.9 mg/kg/day
NEL (rat [7]; [28]): 0.4 mg/kg/day
NOAEL (rat [7]; [28]): 0.4 mg/kg/day
LEL (rat [7]; [29]): 23.2 mg/kg/day
LOAEL (rat [7]; [29]): > 23.2 mg/kg/day
NEL (rat [7]; [29]): 11.2 mg/kg/day
NOAEL (rat [7]; [29]): ≥ 23.2 mg/kg/day
LOAEL (dog [8]; [30]): 5.42 mg/kg/day
NOAEL (dog [8]; [30]): 0.85 mg/kg/day
LEL (dog [8]; [31]): 0.12 mg/kg/day
NEL (dog [8]; [31]): < 0.12 mg/kg/day

CCCCOC(=O)C(C)Oc1ccc(Oc2ccc(C(F)(F)F)cn2)cc1 (centres undefined) [Fluazifop-butyl]
LEL (rat [9]; [32]): 10 mg/kg/day
LOAEL (rat [9]; [32]): 10 mg/kg/day
NEL (rat [9]; [32]): < 10 mg/kg/day
NOAEL (rat [9]; [32]): < 10 mg/kg/day
LEL (rat [9]; [33]): 200 mg/kg/day
LOAEL (rat [9]; [33]): > 200 mg/kg/day
NEL (rat [9]; [33]): 50 mg/kg/day
NOAEL (rat [9]; [33]): ≥ 200 mg/kg/day
LEL (rabbit [10]; [34]): 50 mg/kg/day
LOAEL (rabbit [10]; [34]): 50 mg/kg/day
NEL (rabbit [10]; [34]): 10 mg/kg/day
NOAEL (rabbit [10]; [34]): 10 mg/kg/day
LEL (rabbit [10]; [35]): 50 mg/kg/day
LOAEL (rabbit [10]; [35]): 50 mg/kg/day
NEL (rabbit [10]; [35]): 10 mg/kg/day
NOAEL (rabbit [10]; [35]): 10 mg/kg/day
LEL (hamster): 292 mg/kg/day
LOAEL (hamster): 292 mg/kg/day
NEL (hamster): 78.3 mg/kg/day
NOAEL (hamster): 78.3 mg/kg/day
LEL (rat [11]): 7.1 mg/kg/day
LOAEL (rat [11]): 7.1 mg/kg/day
NEL (rat [11]): 0.7 mg/kg/day
NOAEL (rat [11]): 0.7 mg/kg/day
LEL (rabbit [12]; [36]): 90 mg/kg/day
LOAEL (rabbit [12]; [36]): 90 mg/kg/day
NEL (rabbit [12]; [36]): 30 mg/kg/day
NOAEL (rabbit [12]; [36]): 30 mg/kg/day
LEL (rabbit [12]; [37]): 90 mg/kg/day
LOAEL (rabbit [12]; [37]): 90 mg/kg/day
NEL (rabbit [12]; [37]): 30 mg/kg/day
NOAEL (rabbit [12]; [37]): 30 mg/kg/day
LEL (dog [13]): 250 mg/kg/day
LOAEL (dog [13]): 250 mg/kg/day
NEL (dog [13]): 25 mg/kg/day
NOAEL (dog [13]): 25 mg/kg/day
LEL (rat [14]; [38]): 0.127 mg/kg/day
NEL (rat [14]; [38]): < 0.127 mg/kg/day
LOAEL (rat [14]; systemic / pathology microscopic / kidney / nephropathy + systemic / in life observation / mortality / mortality): 4.15 mg/kg/day
NOAEL (rat [14]; systemic / pathology microscopic / kidney / nephropathy + systemic / organ weight / kidney / absolute + systemic / organ weight / kidney / …): 0.51 mg/kg/day
LOAEL (rat [15]; group: developmental, systemic / in life observation / body weight / fetal weight): 5 mg/kg/day
LEL (rat [15]; [39]): 5 mg/kg/day
NEL (rat [15]; [39]): 1 mg/kg/day
NOAEL (rat [15]; [39]): 1 mg/kg/day
LEL (rat [15]; [40]): 10 mg/kg/day
LOAEL (rat [15]; [40]): > 200 mg/kg/day
NEL (rat [15]; [40]): 5 mg/kg/day
NOAEL (rat [15]; [40]): ≥ 200 mg/kg/day
LEL (rat [16]; [41]): 17.5 mg/kg/day
LOAEL (rat [16]; [41]): 17.5 mg/kg/day
NEL (rat [16]; [41]): 5.8 mg/kg/day
NOAEL (rat [16]; [41]): 5.8 mg/kg/day
LOAEL (rat [16]; group: offspring, reproductive / offspring survival early / litter size / litter size): 17.5 mg/kg/day
NOAEL (rat [16]; group: offspring, reproductive / offspring survival early / litter size / litter size + systemic / pathology microscopic / kidney / hydronephrosis): 5.8 mg/kg/day
LEL (rat [16]; group: offspring, systemic / pathology microscopic / kidney / hydronephrosis): 7.1 mg/kg/day
NEL (rat [16]; group: offspring, systemic / pathology microscopic / kidney / hydronephrosis + developmental / offspring survival late / viability index / viability index + …): 0.88 mg/kg/day
LEL (rat [16]; [42]): 0.74 mg/kg/day
NEL (rat [16]; [42]): < 0.74 mg/kg/day
LOAEL (rat [16]; [43]): 5.8 mg/kg/day
NOAEL (rat [16]; [43]): 0.74 mg/kg/day
NEL (rat [16]; group: reproductive, reproductive / offspring survival early / birth index / live birth index + reproductive / reproductive performance / fertility / fertility…): 0.88 mg/kg/day
LEL (rat [16]; group: reproductive, reproductive / reproductive performance / gestational length / gestational length): 7.1 mg/kg/day
LOAEL (rat [16]; [44]): > 21.7 mg/kg/day
NOAEL (rat [16]; [44]): ≥ 21.7 mg/kg/day
NEL (dog [17]; [45]): 5 mg/kg/day
NOAEL (dog [17]; [45]): 5 mg/kg/day
LOAEL (dog [17]; systemic / pathology microscopic / adrenal gland / vacuolization + systemic / pathology microscopic / thymus / involution): 25 mg/kg/day
LEL (dog [17]; systemic / pathology microscopic / adrenal gland / vacuolization + systemic / pathology microscopic / thymus / involution + systemic / …): 25 mg/kg/day
LEL (rat [18]; [46]): 0.1 mg/kg/day
NEL (rat [18]; [46]): < 0.1 mg/kg/day
LOAEL (rat [18]; systemic / in life observation / mortality / mortality): 3 mg/kg/day
NOAEL (rat [18]; systemic / in life observation / mortality / mortality + systemic / in life observation / clinical signs / fur (altered appearance) + …): 1 mg/kg/day

Cn1cc[nH]c1=S [Methimazole]
LEL (rat [19]): 20 mg/kg/day
LOAEL (rat [19]): > 20 mg/kg/day
NEL (rat [19]): < 20 mg/kg/day
NOAEL (rat [19]): ≥ 20 mg/kg/day
LEL (rat [20]): 1.5 mg/kg/day
LOAEL (rat [20]): > 15 mg/kg/day
NEL (rat [20]): < 1.5 mg/kg/day
NOAEL (rat [20]): ≥ 15 mg/kg/day
LEL (rat [21]): 7 mg/kg/day
LOAEL (rat [21]): > 7 mg/kg/day
NEL (rat [21]): < 7 mg/kg/day
NOAEL (rat [21]): ≥ 7 mg/kg/day
